Test results published in publication PMC13298843, “Substituent size versus metal binding of inhibitors with variants of influenza endonuclease^” (Journal of inorganic biochemistry, 2025).
Read-outs that look alike come from different tables or passages of the source.

Columns and labels:
[1] = target: WT enzyme (PAN endonuclease); parameters: method as in PMID 31536340; details: FRET-based assay, cited from earlier work
[2] = assay type: physicochemical; details: at 1000 μM in DSF buffer with 4 % DMSO
influenza = details: oral monotherapy taken at time of diagnosis; cited from earlier work
[3] = read-out: pIC50 values (converted)
[4] = at edge of limit of detection, read-out: IC50 values

**Q.** With `CCc1ccccc1-c1cc(=O)c(O)c(C(=O)O)[nH]1` [Compound 2] as the compound, how does the IC50 [1, 3] read?
**A.** < 2 nM

**Q.** For `CSc1ccccc1-c1cc(=O)c(O)c(C(=O)O)[nH]1` [Compound 3], which IC50 [1, 4] is on record?
**A.** ~3 nM

**Q.** Which results are given for `O=C(O)c1[nH]c(-c2ccccc2Oc2ccccc2)cc(=O)c1O` [Compound 4]?
**A.** IC50 [1, 4]: ~3 nM; solubility [2]: poorly soluble

**Q.** Which “time to reduce fever (average)” value (influenza) does the source give for `COC(=O)OCOc1c2n(ccc1=O)N([C@@H]1c3ccccc3SCc3c1ccc(F)c3F)[C@@H]1COCCN1C2=O` [BXM, Baloxavir marboxil] here?
**A.** 24 h

**Q.** With `Cc1ccccc1-c1cc(=O)c(O)c(C(=O)O)[nH]1` [Compound 1] as the compound, how does the IC50 [1, 3] read?
**A.** < 2 nM
